The values below are quoted from earlier work in patent publication US7030094B2, “Immunostimulant compositions comprising an aminoalkyl glucosaminide phosphate and QS-21” (priority 2002, dated 2006).

Read-outs that look alike come from different tables or passages of the source.

As for QS-21, the critical micellar concentration (in phosphate buffered saline) is listed as ~0.02 % (w/v) and the critical micellar concentration result (in water) is given as “about 0.03 % (w/v)”. Also, in the data set on sheep red blood cells, the “concentration causing hemolysis of sheep red blood cells” value was not below 25000 ng/mL.
